Data reported in patent US9072729B2, “Method for treating fibrosis and cancer with imidazolium and imidazolinium compounds” (Agency for Science, Technology and Research, priority 2008, dated 2015).

How the values were obtained:
[1] = system: cytochrome C in HLE cells; test: Western blot of cytochrome c release from mitochondria to cytosol; assay type: cell-based, human; conditions: 1.5 mM, 24 hr
Experimental: FIG. 23. (A). […] HLE cells were grown in a T75 flask and treated with DBZIM for 24 hr. The cells were then lysed and cytoplasmic protein was collected for assaying caspase 8, 9 and 3 using kits from Biovision. The data was normalized against the vehicle control. (B). […] HLE cells were treated by DBZIM of 1.5 mM for 24 hr. Cytosolic and mitochondria protein fractions were collected using a kit from Biovision. 15 μg of each protein was resolved in 4-12% gradient PAGE-SDS gel. The target proteins were recognized by antibody of cytochrome C, and visualized by the ECL method. […]
Protein extracts were prepared by lysing cell pellet in RIPA buffer (Pierce, Ill., USA) for total protein extract, or in NE-PER reagent from Pierce (Pierce, Ill., USA) for nuclear and cytoplasmic fractions, or in a Kit from BioVision (CA, USA) for mitochondria and cytosol fractions. Protein content was quantified using BCA Kit (Pierce, Ill., USA). […] The membrane was then probed with primary antibodies against Bcl-XL, Bak, Bcl-2α, Bax (Lab Vision Corp., CA, USA), survivin, xIAP, cIAP (R&D systems Inc., MN, USA), c-Jun, c-Fos, JunB, JunD, Fra-1, Fra-2 (Santa Cruz Biotechnology, CA, USA) respectively, and detected by horseradish peroxidase-conjugated secondary antibody (Santa Cruz Biotechnology, CA, USA). Protein bands were recorded on X-ray film by reacting with ECL chemiluminescence reagents (Amersham Biosciences, NJ, USA). […]

HLE cells = test: Cell based caspase 3/7 and LDH assays, HLE; parameters: species or system human; conditions: 6 hr
Experimental: FIG. 22. […] HLE or HepG2 cells were incubated with DBZIM of various concentrations for 6 hr, and assayed for caspase 3/7 activity and LDH releasing (expressed as % toxicity). DBZIM induced apoptosis as characterized by annexin V staining using flow cytometer in HLE (E) and HepG2 (F). Scatter plot and histogram gave the representative information on the cell population distribution while bar graphs quantified the percentage of apoptotic cells from the histogram. HLE and HepG2 cells were treated by DBZIM of various concentrations for 24 hr before harvesting for annexin V staining and flow cytometric analysis.
(§1) Capspase 3/7 activity and lactate dehydrogenase (LDH) release were measured by Fluorometric assays (Promega Corp., WI, USA). The HCC cells were cultured in 96-well plate and treated with DBZIM of various concentrations for 6 hr before assays. For caspase 3/7 assay, medium was removed and substrate buffer was added to lyse the cell and react with caspase 3/7 to give rise to fluorescence signal which was read at Ex=485 nm and Em=530 nm on a Tecan Safire II plate reader after 1 hr incubation. The caspase 3/7 activity of sample cells with the compound treatment was expressed as relative fold change after normalizing to the control cells. The LDH assay (indicative of membrane integrity) was performed using a Kit from Promega Corp according to manufactor's instructions.

[2] = system: liver fibrosis induced by thioacetamide (TAA); test: Liver fibrosis in mice induced by thioacetamide (TAA); assay type: in vivo, mouse; conditions: TAA model, 500 mg/L in drinking water, 12 weeks
Experimental: FIG. 15 Effect of DBZIM and DPIM on liver fibrosis in mice. DBZIM was tested on mice induced by (a) liver toxin thioacetamide (TAA) or by (b) bile duct ligation (BDL). DPIM was also tested on mice induced by TAA (data not shown)) or by (c) bile duct ligation (BDL).
For the liver toxin thioacetamide (TAA) model, TAA was given by i.p. injection at 200 mg/kg body weight, 3 times per week, for 12 weeks, to induce hepatic fibrosis in mice. For the bile duct ligation model (BDL), adult mice were anesthetized with Ketamine (150 mg/kg)/Xylazine (10 mg/kg) via i.p. injection. An abdominal incision at the midline is made to expose the common bile conduct, which was then ligated using 5-0 silk suture. In the control animal, the bile duct is exposed, but not ligated. DBZIM or DPIM was provided to the mice in drinking water at concentrations from 1 to 1000 mg/liter. The collagen content in the fibrotic liver was assessed by the Sirius Red staining of the liver tissue sections.

[3] = system: Bcl-2 and IAP protein expression in HepG2 cells; test: Western blot of Bcl-2 and IAP family proteins; assay type: cell-based, human; conditions: HepG2, 0-2.0 mM, 24 hr
Experimental: FIG. 24. DBZIM affected Bcl-2 and IAP protein expression. HepG2 cells were treated with DBZIM (0, 0.5, 1.0, 1.5 and 2.0 mM) for 24 hr. Total protein was collected using RIPA buffer. 15 μg of total protein was resolved in 4-12% gradient PAGE-SDS gel. The target proteins were recognized by respective antibodies, and visualized by the ECL method. The membrane was stripped and probed for the α-tubulin as the loading control.
Protein extracts were prepared by lysing cell pellet in RIPA buffer (Pierce, Ill., USA) for total protein extract, or in NE-PER reagent from Pierce (Pierce, Ill., USA) for nuclear and cytoplasmic fractions, or in a Kit from BioVision (CA, USA) for mitochondria and cytosol fractions. Protein content was quantified using BCA Kit (Pierce, Ill., USA). Fifteen micrograms of protein were resolved in 4-12% gradient SDS/polyacrylamide gel electrophoresis (PAGE) gel, and transferred to nitrocellular membrane. The membrane was then probed with primary antibodies against Bcl-XL, Bak, Bcl-2α, Bax (Lab Vision Corp., CA, USA), survivin, xIAP, cIAP (R&D systems Inc., MN, USA), c-Jun, c-Fos, JunB, JunD, Fra-1, Fra-2 (Santa Cruz Biotechnology, CA, USA) respectively, and detected by horseradish peroxidase-conjugated secondary antibody (Santa Cruz Biotechnology, CA, USA). Protein bands were recorded on X-ray film by reacting with ECL chemiluminescence reagents (Amersham Biosciences, NJ, USA). Alpha-tubulin (Abeam, UK) was used as the loading control for total protein, Tata binding protein (TBP) (Abeam, UK) was used as the loading control for nuclear protein, and Cox4 (Abcam, UK) was used as loading control for mitochondria protein.

C6 = test: Caspase 3/7 activity in C6; assay type: cell-based, rat; conditions: C6, 2.0 mM, 6 hr
Experimental: FIG. 30. DBZIM inhibited cell proliferation in glioma cell line C6 (A) and U87 MG (C) and induced caspase 3/7 activity in C6 (B) and U87 MG (D). C6 or U87 cells were incubated with DBZIM of various concentrations for 48 hr for proliferation assay and 6 hr for caspase 3/7 activation assay. Proliferation was measured using MTS kit from Promega and expressed as relative cell proliferation with control group was normalized to 1. Caspase 3/7 activity was quantified using a kit from Promega and also expressed as relative caspase 3/7 activity of treated groups over control group.
as §1

[4] = Stability in drinking water by NMR analysis; assay type: physicochemical; conditions: room temperature
[5] = culture medium for human esophageal cancer cells (Hou et al. 2005); cited from earlier work

## [Br-].c1ccc(Cn2cc[n+](Cc3ccccc3)c2)cc1 [DBZIM, 1,3-bisbenzylimidazolium bromide]
[1]
  release of cytochrome C from the mitochondria to the cytosol: minimal release
HLE cells
  LDH release: least affected
  caspase 3/7 activity: enhanced
[2]
  liver fibrosis (Sirius Red collagen): attenuated fibrosis
[3]
  Bak protein: up-regulated
  Bcl-2α and Bax proteins: not affected
  Bcl-XL protein: slightly down-regulated
  survivin protein: significantly suppressed
  xIAP and cIAP proteins: not affected
C6
  elevation of caspase 3/7: 3 folds

## CC(C)n1cc[n+](C(C)C)c1.F[B-](F)(F)F [DPIM, 1,3-diisopropylimidazolium tetrafluoroborate]
[4]
  stability in water: stable in water at room temperature condition for at least two weeks

## (−)-Epigallocatechin gallate [EGCG, reference compound]
[5]
  half life in culture medium: 30 min
